This note sets out measurements from US11220503B2, “Phthalazine derivatives, preparation method, pharmaceutical composition and usage thereof” (Shanghai SIMR Biotech Co., Ltd., priority 2015, dated 2022).

In this experiment the target is T1, α5β3γ2 receptor (Homo sapiens, UniProt P18507+P31644).
T1 construct: expressed in transfected cells; host or cells: HEK-293 (stably transfected)
Briefly: Supplementary data for cell level screening: new electrophysiology method (I. Lecker et al). It counts as cell-based. The settings on record: for Inverse agonism efficacy(%): new method, CsCl intracellular solution, GABA 0.1˜0.3 CM, other procedures as previous method; for inverse agonism efficacy of the compound/α5IA inverse agonism efficacy: ratio to the α5IA reference run above in the table (r4 or r29). As for the experimental part:
The inventors used electrophysiological methods to assay the inverse agonist efficacy of the substance to be tested. The detailed procedures are as follows: (1) Different subunits of GABAA receptors were expressed in human embryonic kidney cells 293 (HEK293). The cells were cultured in a culture medium and used as a cell model for screening potential analgesics. The α, β and γ subunits are necessary to form complete functional GABAA receptors. In this example, the inventor has established the following cell model: (a) α5 subunit (protein sequence is GenBank accession number: NP_001158509), β3 subunit (protein sequence is GenBank accession number: NP_068712) and γ2 subunit (protein sequence is GenBank accession number: NP_944494) were expressed in HEK-293 cell lines at the same time, which formed the complete functional GABAA receptors. (2) Cells were stably transfected HEK-293 cells expressing α5β3γ2 receptor, which were labeled by green fluorescent protein (GFP). Cells were grown in 10 cm dishes. The cells were passaged after reaching 80-90% confluence. During passaging, the culture medium was removed and discarded, 3 mL DMEM medium (Gibco™) was added to the dishes, the dishes were shaken slightly, and DMEM was removed and discarded. 3 mL Trypsin (Trypsin-EDTA 0.05%, Gibco™) was added and cells were digested at 37° C. for 3 minutes. Then 3 mL complete growth medium (DMEM+10% horse serum (Gibco™)) was added and the cells at the bottom of the culture dishes were dispersed. The cell suspension were transferred to a 15 mL centrifugal tube (Corning®) and then centrifuged at 200 g for 3 minutes. The supernatant was discarded, 4 mL complete growth medium was added, and the cells were resuspended by gently blowing. The cell suspension was diluted by 1:5 or 1:10 for subculturing. The cell suspension was diluted by 1:12 for electrophysiology experiment, which are added to the 24 well plate (Corning®) which has a glass slide pre-treated with poly-D-lysine. The cells were adhered to the slide before the experiment was conducted. The cells were maintained in culture for no more than 24 hours before use. (3) Compound concentration: for screening, all compounds were diluted to a final concentration of 100 nM. […] The compounds were at the concentration of 1 nM, 10 nM, 50 nM, 100 nM and 1000 nM in dose-inverse agonism efficacy (%) experiment. The whole cell patch clamp technique was used in electrophysiology experiments. The extracellular solution (ECS) contained: 150 mM NaCl, 5 mM KCl, 2.5 mM CaCl2, 1 mM MgCl2, 10 mM HEPES and 10 mM glucose (pH 7.4); […], 5 mM EGTA, 10 mM HEPES ([…] water). The currents were recorded by an EPC-10 amplifier and the PatchMaster software (HEKA). Patch electrodes with a resistance of 5-6 MΩ were pulled from borosilicate glass (Sutter). The diluted compounds were perfused by OCTAFLOWII system. GFP positive and independently growing cells were selected for recording. During recording, the membrane voltage was clamped at −60 mV. During experiment, the cells were firstly perfused with ECS for 20 seconds. When the baseline reached to a stable state, cells were then perfused with GABA solution. Then the current induced by GABA can be detected. After about 20-40 seconds, the current was stable. ECS was switched to compounds solution and the effects of the compounds were detected. At last, the perfusion solution was switched to ECS. The experiment was finished when the post-baseline returned to the pre-baseline before compounds perfusion. Only the data whose pre-baseline and post-baseline are at almost the same level were used for analysis. […] Then, compounds were diluted at the desired concentration in GABA ECS. (4) Currents were analyzed with the PatchMaster (HEKA) software. The GABA currents before (Ipre) and after (Ipost) compounds perfusion were recorded respectively. The efficacies of compounds were calculated by the following equation: inverse agonism efficacy=(Ipost-Ipre)*100/Ipre. N indicates experiment numbers. […]

T1 sequence (P31644 32-462): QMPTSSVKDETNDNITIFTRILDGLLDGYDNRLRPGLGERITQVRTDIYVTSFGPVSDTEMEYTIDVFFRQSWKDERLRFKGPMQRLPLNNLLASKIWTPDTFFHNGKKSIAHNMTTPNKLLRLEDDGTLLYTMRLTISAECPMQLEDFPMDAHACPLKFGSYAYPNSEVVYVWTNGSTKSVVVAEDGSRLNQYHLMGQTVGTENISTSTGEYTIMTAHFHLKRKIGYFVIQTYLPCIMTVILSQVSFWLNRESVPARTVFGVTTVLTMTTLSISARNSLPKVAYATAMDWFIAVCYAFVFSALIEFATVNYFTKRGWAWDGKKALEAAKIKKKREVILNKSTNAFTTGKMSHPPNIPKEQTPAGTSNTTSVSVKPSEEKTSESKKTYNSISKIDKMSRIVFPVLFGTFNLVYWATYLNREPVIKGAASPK
T1 sequence (P28472 26-473 isoform P28472-2 partner limits assumed): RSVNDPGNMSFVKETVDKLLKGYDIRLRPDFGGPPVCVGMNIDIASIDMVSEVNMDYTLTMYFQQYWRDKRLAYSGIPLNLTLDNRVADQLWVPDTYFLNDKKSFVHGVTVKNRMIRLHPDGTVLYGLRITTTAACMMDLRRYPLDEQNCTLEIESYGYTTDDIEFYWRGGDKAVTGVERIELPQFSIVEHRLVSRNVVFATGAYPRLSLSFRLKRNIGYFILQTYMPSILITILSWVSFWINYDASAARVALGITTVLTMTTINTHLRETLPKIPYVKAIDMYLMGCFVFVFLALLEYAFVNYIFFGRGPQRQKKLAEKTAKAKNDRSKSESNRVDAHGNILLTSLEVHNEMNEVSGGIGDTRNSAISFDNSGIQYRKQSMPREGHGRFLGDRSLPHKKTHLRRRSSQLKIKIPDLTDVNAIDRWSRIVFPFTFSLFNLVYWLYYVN
T1 sequence (P18507 40-475): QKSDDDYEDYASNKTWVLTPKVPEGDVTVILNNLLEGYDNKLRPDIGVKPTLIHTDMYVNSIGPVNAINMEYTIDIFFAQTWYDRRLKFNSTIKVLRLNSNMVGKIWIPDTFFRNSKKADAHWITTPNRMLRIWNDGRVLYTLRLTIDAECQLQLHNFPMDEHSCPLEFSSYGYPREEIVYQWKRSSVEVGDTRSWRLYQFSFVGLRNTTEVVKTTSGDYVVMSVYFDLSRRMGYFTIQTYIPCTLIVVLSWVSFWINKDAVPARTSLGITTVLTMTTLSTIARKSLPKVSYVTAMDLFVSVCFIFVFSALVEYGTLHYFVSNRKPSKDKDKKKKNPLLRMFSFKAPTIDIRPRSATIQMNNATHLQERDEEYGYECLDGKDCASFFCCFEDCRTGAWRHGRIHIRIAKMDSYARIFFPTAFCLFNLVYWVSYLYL

Regarding `Cc1cc(-c2nnc3c4ccccc4c(OCc4ccc(C(=O)NCCN5CCOCC5)cn4)nn23)no1` [Compound 12, 6-(((3-(5-methylisoxazol-3-yl)-[1,2,4]triazolo[3,4-a]phthalazin-6-yl)oxy)methyl)-N-(2-morpholinoethyl)nicotinamide], the “Inverse agonism efficacy(%)” value was −19.0625% and the “inverse agonism efficacy of the compound/α5IA inverse agonism efficacy” value is 1.098.
With `Cc1cc(-c2nnc3c4ccccc4c(OCc4ccc(C(=O)NCCS(C)(=O)=O)cn4)nn23)no1` [Compound 27, 6-(((3-(5-methylisoxazol-3-yl)-[1,2,4]triazolo[3,4-a]phthalazin-6-yl)oxy)methyl)-N-(2-(methylsulfonyl)ethyl)nicotinamide], the “Inverse agonism efficacy(%)” value was −32.1% and the “inverse agonism efficacy of the compound/α5IA inverse agonism efficacy” value is reported as 1.726.
Consider `Cc1cc(-c2nnc3c4ccccc4c(OCc4ccc(C(=O)NCC(F)(F)F)cn4)nn23)no1` [Compound 30, 6-(((3-(5-methylisoxazol-3-yl)-[1,2,4]triazolo[3,4-a]phthalazin-6-yl)oxy)methyl)-N-(2,2,2-trifluoroethyl)nicotinamide], for which the “Inverse agonism efficacy(%)” value is reported as −52% and the “inverse agonism efficacy of the compound/α5IA inverse agonism efficacy” value is reported as 2.796.
For the compound `CS(=O)(=O)NNC(=O)c1ccc(COc2nn3c(-c4cc(CO)on4)nnc3c3ccccc23)nc1` [Compound 53, N′-(6-(((3-(5-(hydroxymethyl)isoxazol-3-yl)-[1,2,4]triazolo[3,4-a]phthalazin-6-yl)oxy)methyl)nicotinoyl)methanesulfonohydrazide], the “Inverse agonism efficacy(%)” value was −22.8% and the “inverse agonism efficacy of the compound/α5IA inverse agonism efficacy” value is recorded as 1.313.
Take `Cc1cc(-c2nnc3c4ccccc4c(OCc4ccc(C(=O)NCC5CCCO5)cn4)nn23)no1` (stereo not shown) [Compound 26, 6-(((3-(5-methylisoxazol-3-yl)-[1,2,4]triazolo[3,4-a]phthalazin-6-yl)oxy)methyl)-N-((tetrahydrofuran-2-yl)methyl)nicotinamide]: the “Inverse agonism efficacy(%)” value is reported as −21.5% and the “inverse agonism efficacy of the compound/α5IA inverse agonism efficacy” value was 1.238.
With `Cc1cc(-c2nnc3c4ccccc4c(OCc4ccc(C(N)=O)cn4)nn23)no1` [Compound 28, 6-(((3-(5-methylisoxazol-3-yl)-[1,2,4]triazolo[3,4-a]phthalazin-6-yl)oxy)methyl)nicotinamide], the “Inverse agonism efficacy(%)” value is recorded as −19.86% and the “inverse agonism efficacy of the compound/α5IA inverse agonism efficacy” value amounted to 1.143.
Turning to `Cc1cc(-c2nnc3c4ccccc4c(OCc4ccc(C(=O)NC5CC5)cn4)nn23)no1` [Compound 04, N-cyclopropyl-6-(((3-(5-methylisoxazol-3-yl)-[1,2,4]triazolo[3,4-a]phthalazin-6-yl)oxy)methyl) nicotinamide], the “Inverse agonism efficacy(%)” value was −26.5% and the “inverse agonism efficacy of the compound/α5IA inverse agonism efficacy” value amounted to 1.526.
Consider `O=C(NCC(F)(F)F)c1ccc(COc2nn3c(-c4cc(CO)on4)nnc3c3ccccc23)nc1` [Compound 42, 6-(((3-(5-(hydroxymethyl)isoxazol-3-yl)-[1,2,4]triazolo[3,4-a]phthalazin-6-yl)oxy)methyl)-N-(2,2,2-trifluoroethyl)nicotinamide], for which the “Inverse agonism efficacy(%)” value is reported as −32.5% and the “inverse agonism efficacy of the compound/α5IA inverse agonism efficacy” value is on record as 1.871.
Consider `O=C(NC1CC1)c1ccc(COc2nn3c(-c4cc(CO)on4)nnc3c3ccccc23)nc1` [Compound 36, N-cyclopropyl-6-(((3-(5-(hydroxymethyl)isoxazol-3-yl)-[1,2,4]triazolo[3,4-a]phthalazin-6-yl)oxy)methyl)nicotinamide], for which the “Inverse agonism efficacy(%)” value is recorded as −28.8% and the “inverse agonism efficacy of the compound/α5IA inverse agonism efficacy” value is 1.658.
With `O=C(c1ccc(COc2nn3c(-c4cc(CO)on4)nnc3c3ccccc23)nc1)N1CCC1` [Compound 49, azetidin-1-yl-(6-(((3-(5-(hydroxymethyl)isoxazol-3-yl)-[1,2,4]triazolo[3,4-a]phthalazin-6-yl)oxy)methyl)pyridin-3-yl)methanone], the “Inverse agonism efficacy(%)” value is given as −22.2% and the “inverse agonism efficacy of the compound/α5IA inverse agonism efficacy” value is given as 1.278.
On the same counts, the results for `COC1CCN(C(=O)c2ccc(COc3nn4c(-c5cc(C)on5)nnc4c4ccccc34)nc2)CC1` [Compound 22, (4-methoxypiperidin-1-yl)(6-(((3-(5-methylisoxazol-3-yl)-[1,2,4]triazolo[3,4-a]phthalazin-6-yl)oxy)methyl)pyridin-3-yl)methanone] are −33% and 1.774.
In the case of `N#Cc1cc(C(=O)N[C@H]2CCC[C@@H]2O)ccc1COc1nn2c(-c3cc(CO)on3)nnc2c2ccccc12` [Compound 56, 3-cyano-N-((1S,2S)-2-hydroxycyclopentyl)-4-(((3-(5-(hydroxymethyl)isoxazol-3-yl)-[1,2,4]triazolo[3,4-a]phthalazin-6-yl)oxy)methyl)benzamide], the “Inverse agonism efficacy(%)” value is reported as −27.6% and the “inverse agonism efficacy of the compound/α5IA inverse agonism efficacy” value was found to be 1.589.
For the compound `Cc1cc(-c2nnc3c4ccccc4c(OCc4ccc(C(=O)NC5CCN(C)CC5)cn4)nn23)no1` [Compound 11, 6-(((3-(5-methylisoxazol-3-yl)-[1,2,4]triazolo[3,4-a]phthalazin-6-yl)oxy)methyl)-N-(1-methylpiperidin-4-yl)nicotinamide], the “Inverse agonism efficacy(%)” value is given as −17.71% and the “inverse agonism efficacy of the compound/α5IA inverse agonism efficacy” value was determined as 1.020.
For the compound `O=C(NC1CCOCC1)c1ccc(COc2nn3c(-c4cc(CO)on4)nnc3c3ccccc23)nc1` [Compound 44, 6-(((3-(5-(hydroxymethyl)isoxazol-3-yl)-[1,2,4]triazolo[3,4-a]phthalazin-6-yl)oxy)methyl)-N-(tetrahydro-2H-pyran-4-yl)nicotinamide], the “Inverse agonism efficacy(%)” value was −20.8% and the “inverse agonism efficacy of the compound/α5IA inverse agonism efficacy” value is 1.196.
